From PMC7904550, “Application of grouping and read-across for the evaluation of parabens of different chain lengths with a particular focus on endocrine properties” (Archives of Toxicology, 2021)
Read-outs that look alike come from different tables or passages of the source. Marks after values point to notes of the source that are not given here.

Key:
[1] = tested on: human oestrogen receptor β; parameters: method as in Watanabe et al. 2013; details: among 12 linear n-alkyl parabens C1 to C12; ref Watanabe et al. 2013; cited from earlier work
[2] = cited from earlier work
rats [3] = details: cited from earlier work
[4] = Octanol–water partition coefficient (Log Kow); type: physicochemical; details: 23 °C, OECD TG 107
Text: (§1) Generally, these parabens have very similar physico-chemical properties.

rats [5] = details: acute oral, ref ECHA dissemination portal, cited from earlier work
bacteria = details: ref ECHA dissemination portal, cited from earlier work
[6] = Grouping and read-across of NOAEL (ECHA RAAF Scenario 5; analogue approach); details: for NOAEL for systemic repeated-dose toxicity and DART: predicted by read-across from the respective paraben (analogue approach)
Text: The strength of evidence for the respective AEs was scored by the assessment options indicated in the RAAF ranging from Score 5 (acceptable with high confidence) to Score 1 (not acceptable) (ECHA [2017b]).

rats [7] = details: cited from earlier work; remark: listed apart in the source
[8] = tested on: human oestrogen receptor α; parameters: method as in Watanabe et al. 2013; details: ref Watanabe et al. 2013, cited from earlier work
mammalian cells = details: OECD 476; ref ECHA dissemination portal; cited from earlier work
[9] = Acid dissociation constant (pKa); type: physicochemical
Text: as §1

in vivo = details: for concentration at 1 h / Tmax / AUC(0-t) / Cmax: Wistar, rat, in vivo; for Tmax / AUC(0-t) / Cmax: po; for AUC(0-t) / Cmax / AUC0-1 h/AUC0–t / C1h/Cmax / Clast / tlast: parent compound
Experimental: These studies were conducted similarly to OECD TG 417 applying 500 and 1000 mg/kg body weight (bw) test item via oral gavage to 10 males and 10 females per dose group. Focus of the toxicokinetic evaluation was on the measurement of the serum concentrations of the parent compounds and their (common) major metabolite p-hydroxybenzoic acid by […] in order to assess the systemic uptake and elimination of the parent compounds and this major metabolite [see also ECHA ([2017a])]. The limit of quantification was determined as 10 ng/mL for all parabens, and as 130 ng/mL for p-hydroxybenzoic acid. […] On account of these major aims, investigations of the faeces and urine were not included in the toxicokinetics screening studies.

rats [10] = details: cited from earlier work; remark: listed apart in the source
rabbits = tested on: rabbits; parameters: method as in ECHA dissemination portal; details: acute dermal exposure, ref ECHA dissemination portal; cited from earlier work
male rats = tested on: male rats; parameters: method as in Hoberman et al. 2008; details: up to 10,000 ppm, corresponding to 1088 ± 68 mg/kg bw/day; ref Hoberman et al. 2008; cited from earlier work
oestrogen receptors = tested on: oestrogen receptors; parameters: method as in Byford et al. 2002; details: ref Byford et al. 2002; cited from earlier work
rats [11] = details: 5,000, 15,000 and 40,000 ppm in feed, ref Hubbard et al. 2020, cited from earlier work
[12] = ref Yalkowsky and He (2003); cited from earlier work
[13] = ref Dymicky and Huhtanen (1979), cited in CIR (2008); cited from earlier work
rats [14] = details: cited from earlier work; remark: listed apart in the source
[15] = parameters: method as in Hansch et al. (1995); details: ref Hansch et al. (1995); cited from earlier work
Wistar rats = tested on: Wistar rats; parameters: method as in Zhang et al. 2014; details: 400 and 1000 mg/kg bw/day oral gavage; ref Zhang et al. 2014; cited from earlier work
[16] = sodium salt, read-across from the respective paraben

CCCCCOC(=O)c1ccc(O)cc1 [pentyl paraben]
Concentration of highest potency in activating the receptor [1]: 10^–8 M

O=C(O)c1ccc(O)cc1 [p-hydroxybenzoic acid]
Systemic toxicity and DART ([2]; ref ECHA registration dossier 15944): no systemic toxicity and no DART | Endocrine activity ([2]; substance evaluation, REACH Article 48, ref ECHA 2014): does not exhibit any endocrine activity

CCCOC(=O)c1ccc([O-])cc1.[Na+] [Na-propyl paraben, Sodium propyl 4-HBA]
Skin irritation/skin corrosion classification (rats [3]; rat, in vivo): Not irritating (OECD 404; 1982) | Log Kow ([4]; pH 10.8): 0.27 at 23 °C, pH 10.8 (OECD TG 107) | LD50 (rats [5]; rats, OECD 401): > 5000 OECD 401; 1982) mg/kg bw | Mutagenicity in bacteria classification (bacteria; [16]): Not mutagenic (read-across from propyl paraben) | NOAEL for systemic repeated-dose toxicity and DART [6]: 1000 mg/kg bw/day | Eye irritation/eye corrosion classification (rats [7]; rat, in vivo): Serious eye damage (OECD 405; 1983)

CCCCCCCOC(=O)c1ccc(O)cc1 [heptyl paraben]
Concentration of highest potency in activating the receptor ([8]; among 12 linear n-alkyl parabens C1 to C12): 10^–7 M

COC(=O)c1ccc([O-])cc1.[Na+] [Na-methyl paraben, Sodium methyl 4-HBA]
Mutagenicity in mammalian cells classification (mammalian cells): Not mutagenic [a] (OECD 476; 2012) | Mutagenicity in bacteria classification (bacteria; OECD 471): Not mutagenic [a] (OECD 471; 2012) | pKa [9]: 8.4 (OECD TG 112)

CCCCOC(=O)c1ccc(O)cc1 [Butyl paraben, Butyl 4-hydroxybenzoate]
concentration at 1 h (in vivo; female, 500 mg/kg): 31.5 ng/mL | concentration at 1 h (in vivo; female, 1000 mg/kg): 59.1 ng/mL | Tmax (in vivo; female, 500 mg/kg): 4.8 min | AUC(0-t) (in vivo; female, 500 mg/kg, AUC0-1 h): 149 ng·h/mL | AUC(0-t) (in vivo; female, 500 mg/kg, AUC0–t): 336 ng·h/mL | Cmax (in vivo; female, 500 mg/kg): 741 ng/mL | Tmax (in vivo; female, 1000 mg/kg): 4.8 min | AUC(0-t) (in vivo; female, 1000 mg/kg, AUC0-1 h): 191 ng·h/mL | AUC(0-t) (in vivo; female, 1000 mg/kg, AUC0–t): 404 ng·h/mL | Cmax (in vivo; female, 1000 mg/kg): 854 ng/mL | concentration at 1 h (in vivo; male, 500 mg/kg): 161 ng/mL | concentration at 1 h (in vivo; male, 1000 mg/kg): 373 ng/mL | AUC(0-t) (in vivo; male, 500 mg/kg, AUC0-1 h): 300 ng·h/mL | AUC(0-t) (in vivo; male, 500 mg/kg, AUC0–t): 705 ng·h/mL | Cmax (in vivo; male, 500 mg/kg): 1770 ng/mL | AUC(0-t) (in vivo; male, 1000 mg/kg, AUC0-1 h): 860 ng·h/mL | AUC(0-t) (in vivo; male, 1000 mg/kg, AUC0–t): 1580 ng·h/mL | Cmax (in vivo; male, 1000 mg/kg): 6520 ng/mL | Cmax (in vivo; male, 1000 mg/kg, males): 7000 ng/mL | AUC0-1 h/AUC0–t (in vivo; 500 mg/kg, female): 44% | C1h/Cmax (in vivo; 500 mg/kg, female): 4.3% | Clast (in vivo; 500 mg/kg, female): 23.9 ng/mL | tlast (in vivo; 500 mg/kg, female): 8.0 h | AUC0-1 h/AUC0–t (in vivo; 500 mg/kg, male): 43% | C1h/Cmax (in vivo; 500 mg/kg, male): 9.1% | Clast (in vivo; 500 mg/kg, male): 49.2 ng/mL | tlast (in vivo; 500 mg/kg, male): 8.0 h | AUC0-1 h/AUC0–t (in vivo; 1000 mg/kg, female): 47% | C1h/Cmax (in vivo; 1000 mg/kg, female): 6.9% | Clast (in vivo; 1000 mg/kg, female): 23.6 ng/mL | tlast (in vivo; 1000 mg/kg, female): 8.0 h | AUC0-1 h/AUC0–t (in vivo; 1000 mg/kg, male): 54% | C1h/Cmax (in vivo; 1000 mg/kg, male): 5.7% | Clast (in vivo; 1000 mg/kg, male): 18.4 ng/mL | tlast (in vivo; 1000 mg/kg, male): 8.0 h | Skin sensitisation classification (rats [10]; read-across from iso-butyl paraben, OECD 429, ref ECHA dissemination portal): Not sensitising (read-across; OECD 429; 2016) [a] | NOAEL (rabbits): [b] A further acute toxicity study was conducted as dermal exposure study in rabbits yielding NOAEL > 2000 mg/kg bw | Skin irritation/skin corrosion classification (rats [3]; read-across from iso-butyl paraben, OECD 439, ref ECHA dissemination portal): Irritating (read-across; OECD 439; 2016) [a] | Effects in male rats (male rats): no effects | Rank of oestrogen receptor activation among shorter-chained parabens (oestrogen receptors): the most activation | LD50 (rats [5]; OECD 423, read-across from iso-butyl paraben): > 2000 (read across; OECD 423; 2018) [a, b] mg/kg bw | Adverse alterations of fertility, fecundity, pubertal attainment or any reproductive parameters (rats [11]; parent, first, second generation): no association | Liver findings (rats [11]): exposure-dependent increases in liver weight and incidences of non-neoplastic liver lesions | Water solubility [12]: Insoluble [e] | Mutagenicity in bacteria classification (bacteria; read-across from iso-butyl paraben, OECD 471): Not mutagenic (read-across; OECD 471; 2016) [a] | NOAEL for repeated-dose toxicity and DART ([6]; extrapolation, appears justifiable): 1000 mg/kg bw/day | Eye irritation/eye corrosion classification (rats [7]; read-across from iso-butyl paraben, OECD 437, ref ECHA dissemination portal): Ser. eye damage (read-across; OECD 437; 2016) [a] | pKa [13]: 8.37 [c] | NOAEL, point-of-departure (rats [14]; derived from Zhang et al. (2014), ref CIR 2019): 160 mg/kg bw/day | NOEL (rats [14]; juvenile rats, subcutaneous, 17 days (PND 2-18), single dose tested (Fisher et al. 1999), ref SCCS 2010): 2 mg/kg bw/day | Log Kow [15]: 3.54 [d] | Epididymal sperm count and daily sperm production (Wistar rats): dose-dependently reduced epididymal sperm count and daily sperm production

CCOC(=O)c1ccc([O-])cc1.[Na+] [Na-ethyl paraben, Sodium ethyl 4-HBA]
Skin sensitisation classification (rats [10]; rat, in vivo): Not sensitising (read-across from ethyl paraben) | Skin irritation/skin corrosion classification (rats [3]; rat, in vivo): Not irritating (OECD 404; 1981) | Log Kow ([4]; pH 10.4): -0.14 at 23 °C, pH 10.4 (OECD TG 107) | LD50 (rats [5]; rats, OECD 401): 3100 OECD 401; 1982) mg/kg bw | Mutagenicity in bacteria classification (bacteria; [16]): Not mutagenic (read-across from ethyl paraben) | NOAEL for systemic repeated-dose toxicity and DART [6]: 1000 mg/kg bw/day | Eye irritation/eye corrosion classification (rats [7]; rat, in vivo): Irritating (OECD 405; 1982)

C[C@]12CC[C@@H]3c4ccc(O)cc4CC[C@H]3[C@@H]1CC[C@@H]2O [17β-estradiol, reference compound]
Concentration of receptor effects ([8]; receptor subtype not stated): 2.5 × 10^–12
